Reference: ChEMBL document CHEMBL4387706, “Discovery of Novel Spiroindoline Derivatives as Selective Tankyrase Inhibitors” (J Med Chem, 2019)
≈ marks a conversion by molar mass, not a printed value.

Legend:
[1] = biological target: Kappa-type opioid receptor (Homo sapiens) (UniProt P41145); assay: Displacement of [3H]diprenorphine from full-length recombinant human KOR expressed in HEK293 cells at 10 uM measured after 60 mins by scintillation counting method relative to control; assay type: cell-based
Kappa-type opioid receptor (Homo sapiens), sequence (P41145 whole entry): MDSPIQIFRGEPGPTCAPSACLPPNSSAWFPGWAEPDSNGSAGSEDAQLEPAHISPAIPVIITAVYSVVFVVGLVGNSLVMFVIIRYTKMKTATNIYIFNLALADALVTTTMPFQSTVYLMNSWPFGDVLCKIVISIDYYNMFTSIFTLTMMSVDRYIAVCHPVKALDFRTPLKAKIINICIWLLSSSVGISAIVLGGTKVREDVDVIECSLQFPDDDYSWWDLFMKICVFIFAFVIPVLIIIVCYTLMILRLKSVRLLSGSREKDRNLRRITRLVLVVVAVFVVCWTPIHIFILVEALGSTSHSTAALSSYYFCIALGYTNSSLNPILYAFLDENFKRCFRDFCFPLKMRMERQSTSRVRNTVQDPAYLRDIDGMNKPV

[2] = biological target: Endothelin-1 receptor (Homo sapiens) (UniProt P25101); assay: Displacement of [125I]Endothelin1 from full-length recombinant human ETA receptor expressed in CHOK1 cells at 10 uM measured after 120 mins by scintillation counting method relative to control; assay type: cell-based
Endothelin-1 receptor (Homo sapiens), sequence (P25101 whole entry): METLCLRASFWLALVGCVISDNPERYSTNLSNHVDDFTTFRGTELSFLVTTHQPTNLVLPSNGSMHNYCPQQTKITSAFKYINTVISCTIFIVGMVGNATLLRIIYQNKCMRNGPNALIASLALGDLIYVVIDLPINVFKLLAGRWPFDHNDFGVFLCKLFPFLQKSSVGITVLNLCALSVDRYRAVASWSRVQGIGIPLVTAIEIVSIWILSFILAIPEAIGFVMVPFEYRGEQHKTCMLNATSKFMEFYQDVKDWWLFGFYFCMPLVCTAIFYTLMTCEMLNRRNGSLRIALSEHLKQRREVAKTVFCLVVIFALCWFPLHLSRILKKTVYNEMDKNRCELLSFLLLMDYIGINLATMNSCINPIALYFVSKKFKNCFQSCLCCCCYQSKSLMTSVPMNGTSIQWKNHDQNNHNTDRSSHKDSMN

[3] = biological target: Cannabinoid receptor 2 (Homo sapiens) (UniProt P34972); assay: Displacement of [3H]WIN55212-2 from full-length recombinant human CB2 receptor expressed in human Chem1 cells at 10 uM measured after 90 mins by scintillation counting method relative to control; assay type: cell-based
Cannabinoid receptor 2 (Homo sapiens), sequence (P34972 whole entry): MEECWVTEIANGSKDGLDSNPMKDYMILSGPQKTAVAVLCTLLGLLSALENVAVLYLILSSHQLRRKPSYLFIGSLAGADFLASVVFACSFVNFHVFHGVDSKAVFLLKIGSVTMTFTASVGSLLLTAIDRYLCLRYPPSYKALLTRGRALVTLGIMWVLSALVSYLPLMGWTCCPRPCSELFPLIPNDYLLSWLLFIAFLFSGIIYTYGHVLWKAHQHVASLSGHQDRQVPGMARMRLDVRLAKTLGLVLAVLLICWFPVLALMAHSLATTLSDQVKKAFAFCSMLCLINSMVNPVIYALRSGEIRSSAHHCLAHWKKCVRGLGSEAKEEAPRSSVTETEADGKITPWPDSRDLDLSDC

[4] = tested on: COLO 320DM; assay: Antitumor activity against human COLO320DM cells xenografted in mouse assessed as tumor growth inhibition at 150 mg/kg, ip administered twice daily for 11 days relative to control; assay type: functional; details: 264 h, read-out: TGI
[5] = biological target: Mu-type opioid receptor (Homo sapiens) (UniProt P35372); assay: Displacement of [3H]diprenorphine from full-length recombinant human MOR expressed in CHOK1 cells at 10 uM measured after 60 mins by scintillation counting method relative to control; assay type: cell-based
Mu-type opioid receptor (Homo sapiens), sequence (P35372 whole entry): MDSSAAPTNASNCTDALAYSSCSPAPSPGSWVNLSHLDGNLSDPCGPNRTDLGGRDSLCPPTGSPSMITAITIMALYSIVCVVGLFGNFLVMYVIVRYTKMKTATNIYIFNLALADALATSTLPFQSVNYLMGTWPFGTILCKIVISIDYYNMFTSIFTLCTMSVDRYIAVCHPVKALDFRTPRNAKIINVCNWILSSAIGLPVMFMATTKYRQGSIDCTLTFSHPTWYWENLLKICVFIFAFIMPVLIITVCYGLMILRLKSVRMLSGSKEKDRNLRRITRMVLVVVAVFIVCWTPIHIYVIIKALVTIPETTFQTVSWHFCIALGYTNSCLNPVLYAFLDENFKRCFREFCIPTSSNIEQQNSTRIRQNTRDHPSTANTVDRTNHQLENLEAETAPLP

[6] = biological target: T1, Poly [ADP-ribose] polymerase tankyrase-2 (Homo sapiens, UniProt Q9H2K2)
T1 sequence (Q9H2K2 whole entry): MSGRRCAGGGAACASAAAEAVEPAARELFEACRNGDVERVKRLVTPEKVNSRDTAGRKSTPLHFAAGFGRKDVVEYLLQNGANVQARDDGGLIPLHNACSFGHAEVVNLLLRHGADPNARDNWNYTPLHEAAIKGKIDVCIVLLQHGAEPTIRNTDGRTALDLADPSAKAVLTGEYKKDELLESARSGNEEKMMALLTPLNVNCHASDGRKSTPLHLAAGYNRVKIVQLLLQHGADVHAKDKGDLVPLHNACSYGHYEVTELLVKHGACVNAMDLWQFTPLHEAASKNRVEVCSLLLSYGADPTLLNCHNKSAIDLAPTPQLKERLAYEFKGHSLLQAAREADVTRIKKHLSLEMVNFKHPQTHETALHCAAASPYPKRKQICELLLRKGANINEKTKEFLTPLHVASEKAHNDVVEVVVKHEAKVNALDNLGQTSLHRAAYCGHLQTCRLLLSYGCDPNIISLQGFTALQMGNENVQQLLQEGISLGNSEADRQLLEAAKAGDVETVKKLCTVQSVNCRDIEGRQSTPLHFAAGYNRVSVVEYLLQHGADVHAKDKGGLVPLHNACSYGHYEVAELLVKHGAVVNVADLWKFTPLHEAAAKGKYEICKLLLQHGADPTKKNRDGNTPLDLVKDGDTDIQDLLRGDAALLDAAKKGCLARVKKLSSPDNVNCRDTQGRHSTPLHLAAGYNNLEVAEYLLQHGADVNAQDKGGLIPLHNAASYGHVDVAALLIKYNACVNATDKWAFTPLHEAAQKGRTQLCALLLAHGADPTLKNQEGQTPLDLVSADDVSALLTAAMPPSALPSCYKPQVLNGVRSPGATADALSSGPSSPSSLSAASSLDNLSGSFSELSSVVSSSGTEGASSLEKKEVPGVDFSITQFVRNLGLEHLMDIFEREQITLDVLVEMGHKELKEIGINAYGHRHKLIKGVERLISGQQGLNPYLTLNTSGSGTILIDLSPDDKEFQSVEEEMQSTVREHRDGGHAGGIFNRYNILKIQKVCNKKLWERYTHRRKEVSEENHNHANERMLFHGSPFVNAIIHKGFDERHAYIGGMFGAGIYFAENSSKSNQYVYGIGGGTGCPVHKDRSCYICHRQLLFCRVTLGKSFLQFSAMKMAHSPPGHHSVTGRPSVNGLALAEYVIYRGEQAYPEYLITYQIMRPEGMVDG
Description: Inhibition of recombinant human N-terminal TEV cleavage site-fused/FLAG-poly his-tagged TNKS2 SAM-PARP domain (613 to 1166 residues) expressed in Escherichia coli assessed as reduction in auto-PARylation preincubated for 10 mins followed by biotinylated-NAD+ addition and measured after 45 mins by ELISA

[7] = biological target: T2, Tankyrase 1/2 (Homo sapiens, UniProt Q9H2K2+O95271); details: hek293
T2 sequence (Q9H2K2 whole entry): T1 sequence (Q9H2K2 whole entry)
T2 sequence (O95271 whole entry): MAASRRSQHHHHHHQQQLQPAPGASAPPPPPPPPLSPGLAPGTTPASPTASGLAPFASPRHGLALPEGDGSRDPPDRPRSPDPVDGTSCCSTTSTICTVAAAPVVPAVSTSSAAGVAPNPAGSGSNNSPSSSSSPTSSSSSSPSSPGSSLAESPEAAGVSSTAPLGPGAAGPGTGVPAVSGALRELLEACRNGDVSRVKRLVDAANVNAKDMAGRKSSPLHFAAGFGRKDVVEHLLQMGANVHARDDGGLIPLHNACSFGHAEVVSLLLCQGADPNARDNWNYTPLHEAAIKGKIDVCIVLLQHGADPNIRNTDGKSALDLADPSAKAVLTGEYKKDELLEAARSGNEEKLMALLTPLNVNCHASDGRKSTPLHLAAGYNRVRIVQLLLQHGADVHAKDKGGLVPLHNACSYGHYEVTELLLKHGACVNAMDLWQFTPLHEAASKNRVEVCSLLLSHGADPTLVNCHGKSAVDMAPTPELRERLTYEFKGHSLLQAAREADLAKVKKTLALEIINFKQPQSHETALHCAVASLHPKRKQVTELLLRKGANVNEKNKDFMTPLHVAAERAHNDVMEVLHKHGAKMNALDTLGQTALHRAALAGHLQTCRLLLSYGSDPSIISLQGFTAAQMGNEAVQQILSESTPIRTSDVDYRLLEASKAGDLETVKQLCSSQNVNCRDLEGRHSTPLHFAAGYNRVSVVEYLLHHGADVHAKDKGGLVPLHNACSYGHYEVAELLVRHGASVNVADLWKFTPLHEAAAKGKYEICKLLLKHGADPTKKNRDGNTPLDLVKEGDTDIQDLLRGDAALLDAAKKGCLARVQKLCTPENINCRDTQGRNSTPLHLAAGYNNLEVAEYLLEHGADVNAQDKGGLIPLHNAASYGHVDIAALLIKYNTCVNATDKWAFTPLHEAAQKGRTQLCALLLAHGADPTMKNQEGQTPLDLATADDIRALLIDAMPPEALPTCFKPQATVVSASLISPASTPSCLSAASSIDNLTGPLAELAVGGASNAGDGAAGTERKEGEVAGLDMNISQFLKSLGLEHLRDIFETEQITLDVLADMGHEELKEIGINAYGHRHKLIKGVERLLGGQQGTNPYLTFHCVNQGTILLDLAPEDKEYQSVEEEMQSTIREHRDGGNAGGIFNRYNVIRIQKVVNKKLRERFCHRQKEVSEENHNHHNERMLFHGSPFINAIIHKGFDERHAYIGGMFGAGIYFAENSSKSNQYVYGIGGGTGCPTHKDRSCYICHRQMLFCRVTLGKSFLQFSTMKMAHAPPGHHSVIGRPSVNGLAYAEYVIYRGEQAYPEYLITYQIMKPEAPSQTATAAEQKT
Description: Inhibition of TNKS/TNKS2 (unknown origin) expressed in HEK293 cells assessed as reduction in Wnt-signaling measured after 24 hrs by TCF-luciferase reporter gene assay

[8] = physchem; details: phosphate buffer, pH 7.4

| IC50 [6] | IC50 [7] | solubility at 1 h, 200 µM [8] | Structure (SMILES) | inhibition [1] | inhibition [2] | inhibition [3] | inhibition in vivo at 150 mg/kg [4] | inhibition [5] |
| --- | --- | --- | --- | --- | --- | --- | --- | --- |
|  |  |  | O=c1[nH]c(N2CCC3(CC2)CN(CCO)c2cc(F)cc(F)c23)nc2c1CCCC2 | > 20% | > 20% | > 20% | 47.2% | > 20% |
| 19.4 nM | 42.9 nM | 10 µg/mL (≈ 29.4 µM) | COc1ccccc1N1CCN(c2nc3c(c(=O)[nH]2)CCCC3)CC1 |  |  |  |  |  |
